Data published in patent US12662489B2 (Sitryx Therapeutics Limited, priority 2023, dated 2026).

Tests used:
[1] = biological target: T1, MTHFD1 recombinant human enzyme (Homo sapiens, UniProt P11586); experiment: MTHFD1 inhibition assay (NAD(P)H-Glo luminescence); settings: MTHFD1 IC50, recombinant human enzyme 200 nM, NADP, band
T1 sequence (P11586 2-291 limits assumed): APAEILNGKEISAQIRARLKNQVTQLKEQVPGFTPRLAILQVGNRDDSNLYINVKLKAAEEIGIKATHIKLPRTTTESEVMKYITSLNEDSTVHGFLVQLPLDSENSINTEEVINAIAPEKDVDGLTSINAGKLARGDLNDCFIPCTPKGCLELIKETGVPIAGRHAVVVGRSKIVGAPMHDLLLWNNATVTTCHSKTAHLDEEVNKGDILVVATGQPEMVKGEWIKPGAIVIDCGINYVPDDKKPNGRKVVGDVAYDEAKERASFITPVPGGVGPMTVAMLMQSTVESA

[2] = biological target: T2, MTHFD2 recombinant human enzyme (Homo sapiens, UniProt P13995); experiment: MTHFD2 inhibition assay (NAD(P)H-Glo luminescence); settings: for MTHFD1/MTHFD2 IC50 ratio: selectivity of MTHFD2 inhibition over MTHFD1, band
T2 sequence (P13995 36-350): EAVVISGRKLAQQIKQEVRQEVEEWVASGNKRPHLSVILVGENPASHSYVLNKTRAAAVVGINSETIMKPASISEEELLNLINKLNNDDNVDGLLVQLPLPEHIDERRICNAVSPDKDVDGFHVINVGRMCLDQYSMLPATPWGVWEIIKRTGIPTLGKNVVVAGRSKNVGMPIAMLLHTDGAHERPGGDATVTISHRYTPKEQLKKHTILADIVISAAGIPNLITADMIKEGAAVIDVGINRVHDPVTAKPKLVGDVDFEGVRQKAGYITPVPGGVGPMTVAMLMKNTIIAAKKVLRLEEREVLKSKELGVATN

human CD4+ T cells = experiment: Human CD4+ T-cell proliferation assay (CFSE, CD3/28 beads); settings: read-out: Proliferation IC50

Row | IC50 [1] [nM] | IC50 [2] [nM] | MTHFD1/MTHFD2 IC50 ratio [2] | Structure (SMILES) | IC50 (human CD4+ T cells) [nM]
1 | 100 to 1000 | 10 to 100 | H (>9.0 to 30) | COC[C@H]1CN(c2cc(C)c3c4c(c(=O)oc3c2C)CN(C(=O)c2cc(N(C)C)c(C(=O)NS(=O)(=O)N(C3CC3)C3CC3)cc2F)CC4)CCN1C [Example 276, (R)-N-(N,N-dicyclopropylsulfamoyl)-2-(dimethylamino)-5-fluoro-4-(8-(3-(methoxymethyl)-4-methylpiperazin-1-yl)-7,10-dimethyl-5-oxo-1,3,4,5-tetrahydro-2H-chromeno[3,4-c]pyridine-3-carbonyl)benzamide] | 1 to 10
2 | 100 to 1000 | 1 to 10 | J (>30) | COC[C@H]1CN(c2cc(F)c3c4c(c(=O)oc3c2C)CN(C(=O)c2cc(N(C)C)c(C(=O)NS(=O)(=O)N3CCCC3)cc2F)CC4)CCN1C [Example 308, (R)-2-(dimethylamino)-5-fluoro-4-(10-fluoro-8-(3-(methoxymethyl)-4-methylpiperazin-1-yl)-7-methyl-5-oxo-1,3,4,5-tetrahydro-2H-chromeno[3,4-c]pyridine-3-carbonyl)-N-(pyrrolidin-1-ylsulfonyl)benzamide] | 1 to 10
3 | 100 to 1000 | 10 to 100 | G (^ 3 to 9.0) | CCOc1cc(C(=O)N2CCc3c(c(=O)oc4c(C)c(N5CCN(C)[C@@H](COC)C5)cc(C)c34)C2)c(F)cc1C(=O)NS(=O)(=O)N1CCC(C)(C)C1 [Example 217, (R)-N-((3,3-dimethylpyrrolidin-1-yl)sulfonyl)-2-ethoxy-5-fluoro-4-(8-(3-(methoxymethyl)-4-methylpiperazin-1-yl)-7,10-dimethyl-5-oxo-1,3,4,5-tetrahydro-2H-chromeno[3,4-c]pyridine-3-carbonyl)benzamide] | 10 to 30
4 | 1000 to 5000 | 1 to 10 | J (>30) | COC[C@H]1CN(c2cc(C)c3c4c(c(=O)oc3c2C)CN(C(=O)c2cc(F)c(C(=O)NS(=O)(=O)N3CCCC3)cc2C)CC4)CCN1C [Example 270, (R)-2-fluoro-4-(8-(3-(methoxymethyl)-4-methylpiperazin-1-yl)-7,10-dimethyl-5-oxo-1,3,4,5-tetrahydro-2H-chromeno[3,4-c]pyridine-3-carbonyl)-5-methyl-N-(pyrrolidin-1-ylsulfonyl)benzamide] | 1000 to 5000
5 | 1000 to 5000 | 10 to 100 | J (>30) | COC[C@H]1CN(c2cc(C)c3c4c(c(=O)oc3c2C)CN(C(=O)c2cc(OC3CCCC3)c(C(=O)NS(=O)(=O)N3CCCC3)c(C(F)(F)F)c2)CC4)CCN1C [Example 129, (R)-2-(cyclopentyloxy)-4-(8-(3-(methoxymethyl)-4-methylpiperazin-1-yl)-7,10-dimethyl-5-oxo-1,3,4,5-tetrahydro-2H-chromeno[3,4-c]pyridine-3-carbonyl)-N-(pyrrolidin-1-ylsulfonyl)-6-(trifluoromethyl)benzamide] | 100 to 1000

The next lines start with the compound.

Row | Structure (SMILES) | IC50 [1] [nM] | IC50 [2] [nM] | MTHFD1/MTHFD2 IC50 ratio [2] | IC50 (human CD4+ T cells) [nM]
6 | COC[C@H]1CN(c2cc(Cl)c3c4c(c(=O)oc3c2C)CN(C(=O)c2cc(OC)c(C(=O)NS(=O)(=O)N3C5CCC3CC5)cc2F)CC4)CCN1C [Example 324, (R)-N-((7-azabicyclo[2.2.1]heptan-7-yl)sulfonyl)-4-(10-chloro-8-(3-(methoxymethyl)-4-methylpiperazin-1-yl)-7-methyl-5-oxo-1,3,4,5-tetrahydro-2H-chromeno[3,4-c]pyridine-3-carbonyl)-5-fluoro-2-methoxybenzamide] | 100 to 1000 | 10 to 100 | J (>30) | 100 to 1000
7 | COC[C@H]1CN(c2cc(Cl)c3c4c(c(=O)oc3c2C)CN(C(=O)c2cc(N(C)C)c(C(=O)NS(=O)(=O)N3CC[C@H](F)C3)cc2F)CC4)CCN1C [Example 302, 4-(10-chloro-8-((R)-3-(methoxymethyl)-4-methylpiperazin-1-yl)-7-methyl-5-oxo-1,3,4,5-tetrahydro-2H-chromeno[3,4-c]pyridine-3-carbonyl)-2-(dimethylamino)-5-fluoro-N-(((S)-3-fluoropyrrolidin-1-yl)sulfonyl)benzamide] | 100 to 1000 | 10 to 100 | J (>30) | 10 to 30
8 | COC[C@H]1CN(c2cc(Cl)c3c4c(c(=O)oc3c2C)CN(C(=O)c2cc(N(C)C)c(C(=O)NS(=O)(=O)N(C)C)cc2F)CC4)CCN1C [Example 260, (R)-4-(10-chloro-8-(3-(methoxymethyl)-4-methylpiperazin-1-yl)-7-methyl-5-oxo-1,3,4,5-tetrahydro-2H-chromeno[3,4-c]pyridine-3-carbonyl)-2-(dimethylamino)-N-(N,N-dimethylsulfamoyl)-5-fluorobenzamide] | 100 to 1000 | 1 to 10 | J (>30) | 10 to 30
9 | COC[C@H]1CN(c2cc(F)c3c4c(c(=O)oc3c2C)CN(C(=O)c2cc(N(C)C)c(C(=O)NS(=O)(=O)N3C5CCC3CC5)cc2F)CC4)CCN1C [Example 304, (R)-N-((7-azabicyclo[2.2.1]heptan-7-yl)sulfonyl)-2-(dimethylamino)-5-fluoro-4-(10-fluoro-8-(3-(methoxymethyl)-4-methylpiperazin-1-yl)-7-methyl-5-oxo-1,3,4,5-tetrahydro-2H-chromeno[3,4-c]pyridine-3-carbonyl)benzamide] | 1000 to 5000 | 10 to 100 |  | 10 to 30
10 | COC[C@H]1CN(c2cc(C)c3c4c(c(=O)oc3c2C)CN(C(=O)c2cc(OC3CC3)c(C(=O)NS(=O)(=O)N3C5CCC3CC5)cc2F)CC4)CCN1C [Example 331, (R)-N-((7-azabicyclo[2.2.1]heptan-7-yl)sulfonyl)-2-cyclopropoxy-5-fluoro-4-(8-(3-(methoxymethyl)-4-methylpiperazin-1-yl)-7,10-dimethyl-5-oxo-1,3,4,5-tetrahydro-2H-chromeno[3,4-c]pyridine-3-carbonyl)benzamide] | 100 to 1000 | 1 to 10 | J (>30) | 30 to 100
11 | COC[C@H]1CN(c2cc(C)c3c4c(c(=O)oc3c2C)CN(C(=O)c2ccc(C(=O)NS(=O)(=O)C3(C)CC3)c(N(C)C)c2F)CC4)CCN1C [Example 136, (R)-2-(dimethylamino)-3-fluoro-4-(8-(3-(methoxymethyl)-4-methylpiperazin-1-yl)-7,10-dimethyl-5-oxo-1,3,4,5-tetrahydro-2H-chromeno[3,4-c]pyridine-3-carbonyl)-N-((1-methylcyclopropyl)sulfonyl)benzamide] | 100 to 1000 | 10 to 100 | H (>9.0 to 30) | 30 to 100
12 | COC[C@H]1CN(c2cc(C)c3c4c(c(=O)oc3c2C)CN(C(=O)c2ccc(C(=O)NS(=O)(=O)N3C[C@H]5CCC[C@H]5C3)cc2)CC4)CCN1C [Example 210, N-(((3aR,6a S)-hexahydrocyclopenta[c]pyrrol-2(1H)-yl)sulfonyl)-4-(8-((R)-3-(methoxymethyl)-4-methylpiperazin-1-yl)-7,10-dimethyl-5-oxo-1,3,4,5-tetrahydro-2H-chromeno[3,4-c]pyridine-3-carbonyl)benzamide] | 1000 to 5000 | 10 to 100 | J (>30) | > 5000
13 | COC[C@H]1CN(c2cc(Cl)c3c4c(c(=O)oc3c2C)CN(C(=O)c2cc(N(C)C)c(C(=O)NS(=O)(=O)N3C5CCC3CC5)cc2F)CC4)CCN1C [Example 316, (R)-N-((7-azabicyclo[2.2.1]heptan-7-yl)sulfonyl)-4-(10-chloro-8-(3-(methoxymethyl)-4-methylpiperazin-1-yl)-7-methyl-5-oxo-1,3,4,5-tetrahydro-2H-chromeno[3,4-c]pyridine-3-carbonyl)-2-(dimethylamino)-5-fluorobenzamide] | 1000 to 5000 | 10 to 100 | J (>30) | 30 to 100
14 | COC[C@H]1CN(c2cc(Cl)c3c4c(c(=O)oc3c2C)CN(C(=O)c2ccc(C(=O)NS(=O)(=O)N3C5CCC3CC5)c(OC)c2)CC4)CCN1C [Example 321, (R)-N-((7-azabicyclo[2.2.1]heptan-7-yl)sulfonyl)-4-(10-chloro-8-(3-(methoxymethyl)-4-methylpiperazin-1-yl)-7-methyl-5-oxo-1,3,4,5-tetrahydro-2H-chromeno[3,4-c]pyridine-3-carbonyl)-2-methoxybenzamide] | 1000 to 5000 | 10 to 100 | J (>30) | 30 to 100
15 | COC[C@H]1CN(c2cc(C)c3c4c(c(=O)oc3c2C)CN(C(=O)c2cc(N(C)C)c(C(=O)NS(=O)(=O)N3C5CCC3CC5)cc2Cl)CC4)CCN1C [Example 193, (R)-N-((7-azabicyclo[2.2.1]heptan-7-yl)sulfonyl)-5-chloro-2-(dimethylamino)-4-(8-(3-(methoxymethyl)-4-methylpiperazin-1-yl)-7,10-dimethyl-5-oxo-1,3,4,5-tetrahydro-2H-chromeno[3,4-c]pyridine-3-carbonyl)benzamide] | 1000 to 5000 | 10 to 100 | J (>30) | 30 to 100
